Results taken from paper PMC6148246, “HS-1371, a novel kinase inhibitor of RIP3-mediated necroptosis” (Experimental & Molecular Medicine, 2018).

Assays:
HeLa cells = HeLa cells ectopically expressing RIP3 (immunoblot, MTT); format: cell-based, human
Description: HEK293T, HT-29, H2009, L929, HeLa, and MEF cells were grown in Dulbecco’s Modified Eagle’s Medium (DMEM) supplemented with 10% fetal bovine serum (FBS). RAW264.7 cells were grown in Roswell Park Memorial Institute (RPMI) 1640 media supplemented with 10% FBS. To generate cell lines stably expressing the RIP3 construct, HeLa and H2009 cells were infected with pLX303-hRIP3 lentivirus.
(§1) Cells were pretreated with DAB or HS-1371 for 2 h and then treated with TSZ (6 h for immunoblotting, 24 h for cell death assay). Cell lysates were analyzed by immunoblotting (left bottom panel), and cell viability was analyzed by MTT assay (right panel). The results are presented as means ± SEM. *P < 0.05, **P < 0.01, ***P < 0.001. c, d HS-1371 had the same effect on mouse cells. L929 (mouse sarcoma, c) and MEF (mouse embryonic fibroblast, d) cells were pretreated with inhibitors and then necroptosis was induced by TNF. Cell lysates were analyzed by immunoblotting (upper panel), and cell viability was analyzed by MTT assay (bottom panel). The results are presented as means ± SEM. *P < 0.05, **P < 0.01, ***P < 0.001

[1] = system: mouse embryonic fibroblast (MEF) cells; assay: TCZ-induced necroptosis in MEF cells; format: cell-based; details: TNF plus cycloheximide and zVAD (TCZ)
Description: as §1

293T cells = assay: RIP3 overexpression-induced cell death in 293T cells (PI staining); format: cell-based, human; details: 293T transfected with Flag-RIP3, 20 h
Description: Fig. 6 Possibility of HS-1371 as a drug for necroptosis-related diseases. a, b HT-29 cells were pre- or post-treated with HS-1371 for indicated time points, and RIP3 phosphorylation (a) and cell death (b) were measured by western blotting or MTT assay. Data are presented as means ± SEM. *P < 0.05, **P < 0.01, ***P < 0.001. c HT-29 cells were treated with TSZ and then post-treated with HS-1371 for indicated time points, and then cell lysates were analyzed by immunoblotting (upper panel). Cell viability was analyzed by MTT assay. Data are presented as means ± SEM. *P < 0.05, **P < 0.01, ***P < 0.001. d Cells were treated with the same conditions as (c), and cell lysates were immunoprecipitated with anti-RIP3 antibody. […] 293T cells were transfected with Flag vector or Flag-RIP3, and 20 h after transfection, cells were stained with PI. PI-positive cells were analyzed by phase-contrast fluorescence microscopy

NF-κB pathway = assay: TNF- or LPS-induced NF-κB signaling (immunoblot); format: cell-based
Description: Supplementary Figure 1. Identification of HS-1371 as a novel RIP3 kinase inhibitor.
Detailed interaction patterns in the region surrounded by DFG motif and αC helix of RIP3.
Hydrogen bonds are indicated with dotted lines.
Supplementary Figure 2. The effect of HS-1371 was compared with GSK’872.
(a) Overexpression of RIP3 could induce S227 phosphorylation without stimuli. HEK293T cells were transiently transfected with Flag-hRIP3, and cells were treated with or without DAB for incubation periods. After cells were harvested, cell lysates were analyzed by […]
kinase inhibitor. HT-29 cells were treated with HS -1371 or GSK’872 indicated concentrations for 9 h, and cell lysates were analyzed by immunoblotting.
(c) Cytotoxicity of HS-1371 was compared with GSK’872. HT-29 cells were treated with 2 kinase inhibitors for 24 h and cell viability was analyzed by MTT assay.
(d) Inhibition of MLKL phosphorylation by HS-1371 was compared with other two RIP3 kinases inhibitors, DAB (5 μM) and GSK’872 (5 μM). […] Cell lysates were analyzed by […]
HeLa, L929, and MEF cells were pretreated with HS-1371 (5 μM) for 2 h, and treated with TNF (30 ng/mL) for indicated time points. Cell lysates were analyzed by immunoblotting. […]
(a) RAW264.7 cells were treated with LPS (1 μg/mL) for indicated time points and cell lysates were analyzed by immunoblotting. […]

Cc1ccc(Oc2ccnc3cc(-c4cnn(C5CCNCC5)c4)ccc23)cc1 [HS-1371, 7-(1-(Piperidin-4-yl)-1H-pyrazol-4-yl)-4-(p-tolyloxy)quinoline]
basal RIP3 phosphorylation (HeLa cells; HeLa with ectopic RIP3, 6 h, dose-dependent): decreased | cell viability after TSZ (HeLa cells; HeLa with ectopic RIP3, TSZ 24 h, MTT, dose-dependent): gradually increased | TSZ-induced RIP3 phosphorylation and MLKL phosphorylation (HeLa cells; HeLa with ectopic RIP3, pretreated 2 h, TSZ 6 h): effectively blocked | MLKL phosphorylation and cell death [1]: effectively prevented | cell death by RIP3 ectopic expression (PI-positive staining) (293T cells): completely blocked | TNF-induced NF-κB signaling (NF-κB pathway; HT-29, HeLa(RIP3), L929, MEF, 5 μM pretreated 2 h, TNF 30 ng/mL): did not affect | LPS-induced induction of the NF-κB pathway (NF-κB pathway; data not shown): not altered
